Experimental findings from patent US8501804B2, “Bicyclic compound” (Takeda Pharmaceutical Company Limited, priority 2008, dated 2013) are described below.

For one assay, the target named is T1, human ACC2 (Nd) (Homo sapiens, UniProt O00763).
T1 construct: His6 (from vector pFAST-BacHTa); made in house; host or cells: SF-9 insect cells, recombinant baculovirus BAC-ACC2 (Nd)
The experiment in a line: ACC2 inhibitory activity (malachite green). In kind it is biochemical. The settings on record: test compound 10 μM; for inhibition at 10 µM: read-out: ACC2 10 μM inhibitory rate (%). The method, then:
The ACC2 inhibitory action of the compound of the present invention was evaluated by the following method.
(1) Cloning of Human ACC2 Gene and Preparation of Recombinant Baculovirus
Human ACC2 gene was cloned by PCR using a human skeletal muscle cDNA library (Clontech) as a template and Primer 1 and Primer 2 shown below. Primer 1 and Primer 2 were prepared by adding SalI, XbaI restriction enzyme recognition sequences based on the information of the base sequence of human ACC2 gene (Genbank Accession U89344).
PCR was performed using Pyrobest DNA polymerase (TAKARA BIO INC.). The obtained PCR product was cloned to pT7 Blue vector (Novagen) and, after confirmation of the base sequence, digested with restriction enzymes SalI and XbaI. The obtained DNA fragment was inserted into pFAST-BacHTa (Invitrogen) digested with restriction enzymes SalI and XbaI to give expression plasmid ACC2/pFAST-BacHTa.
A plasmid for expression of ACC2 without a mitochondrial targeting sequence was prepared by PCR using the expression plasmid as a template, and Primer 3 (SalI restriction enzyme recognition sequence was added) and Primer 4 prepared by reference to the information of human ACC2 gene base sequence (Genbank Accession U89344).
PCR was performed using Pyrobest-DNA polymerase (TAKARA BIO INC.). The obtained PCR product was cloned to pT7 Blue vector (Novagen) and, after confirmation of the base sequence, digested with restriction enzymes SalI and AflII. The obtained DNA fragment was inserted into ACC2/pFAST-BacHTa digested with restriction enzymes SalI and AflII to give expression plasmid ACC2mito7/pFAST-BacHTa.
Using the expression plasmid ACC2mito7/pFAST-BacHTa and BAC-TO-BAC Baculovirus Expression System (Invitrogen), virus stock BAC-ACC2 of recombinant Baculovirus (N terminal deleted (hereinafter Nd)) was prepared.
(2) Preparation of ACC2 (Nd) Protein
SF-9 cells (Invitrogen) were inoculated to a medium (2 L) for insect cells (Sf-900IISFM medium (Invitrogen) containing 10% fetal bovine serum (Trace), 50 mg/L Gentamicin (Invitrogen), 0.1% Pluronic F-68 (Invitrogen)) at 0.5×10^6 cells/mL, and cultured with shaking in Wave Bioreactor (Wave) at 27° C., 20 rpm, rocking angle 6°, oxygen concentration 30%.
On day 4 of the culture, 3 L of the medium for insect cells was added, the rocking angle was set to 8°, and the cells were cultured. On day 5 of the culture, 100 ml of recombinant Baculovirus BAC-ACC2 (Nd) was added, 5 L of the medium for insect cells was further added, the rocking angle was set to 11°, and the cells were cultured for 3 days. The culture medium was centrifuged at 1000×g for 10 min to give virus-infected cells. The cells were washed with phosphate buffered saline (Invitrogen) and centrifuged under the same conditions. The obtained cells were cryopreserved at −80° C.
The cryopreserved cells were thawed in ice and suspended in 900 ml of 25 mM HEPES buffer (pH 7.5) containing 10% Glycerol, 0.13 M NaCl, 1 mM EDTA, 25 mM Sodium β-Glycerophosphate and 1 mM Sodium Orthovanadate, and supplemented with Complete Protease Inhibitor (Nippon Boehringer Ingelheim Co., Ltd.). The obtained suspension was homogenized three times in a polytron homogenizer (Kinematica) at 20,000 rpm for 30 sec. The obtained cell disruption solution was clarified by centrifugation at 31000×g for 60 min, and filtered through a 0.45 μm filter. The filtrate was passed through a column packed with 60 mL of Ni-NTA Super Flow Gel (QUIAGEN) at a flow rate of about 5 mL/min. The column was washed with buffer A (50 mM HEPES (pH 7.5) containing 0.3 M NaCl), further washed with buffer A containing 20 mM Imidazole, and eluted with buffer A containing 100 mM Imidazole. The eluate was concentrated with Vivaspin 20 (Vivascience) with a molecular weight cut off of 30K. The obtained concentrate was dialyzed against 50 mM HEPES (pH 7.5) containing 10 mM MgCl2, 2 mM Dithiothreitol, 10 mM Tripotassium Citrate and 0.3 M NaCl. The inner dialysate was filtered through a 0.22 μm filter to give ACC2 (Nd). […]

The target of the next assay is T2, human ACC1 (Homo sapiens, UniProt Q13085).
T2 construct: His6 (from vector pFAST-BacHTc); made in house; host or cells: SF-9 insect cells, recombinant baculovirus BAC-ACC1
Description: ACC1 inhibitory activity (malachite green). Particulars: test compound 10 μM; for inhibition at 10 µM: read-out: ACC1 10 μM inhibitory rate (%). In kind it is biochemical. The procedure: The ACC1 inhibitory action of the compound of the present invention was evaluated by the following method.
(1) Cloning of Human ACC1 Gene and Preparation of Recombinant Baculovirus
Human ACC1 gene was cloned by PCR using a human liver cDNA library (Clontech) as a template and Primer 1 and Primer 2 shown below. Primer 1 and Primer 2 were prepared by adding SalI, NotI restriction enzyme recognition sequences based on the information of the base sequence of human ACC1 gene (Genbank Accession U19822).
PCR was performed using Pyrobest DNA polymerase (TAKARA BIO INC.). The obtained PCR product was cloned to pT7 Blue vector (Novagen) and, after confirmation of the base sequence, digested with restriction enzymes SalI and NotI. The obtained DNA fragment was inserted into pFAST-BacHTc (Invitrogen) digested with restriction enzymes SalI and NotI to give expression plasmid ACC1/pFAST-BacHTc.
Using the expression plasmid ACC1/pFAST-BacHTc and BAC-TO-BAC Baculovirus Expression System (Invitrogen), virus stock BAC-ACC1 of recombinant Baculovirus was prepared.
(2) Preparation of ACC1 Protein
SF-9 cells (Invitrogen) were inoculated to a medium (1 L) for insect cells (Sf-900IISFM medium (Invitrogen) containing 10% fetal bovine serum (Trace), 50 mg/L Gentamicin (Invitrogen), 0.1% Pluronic F-68 (Invitrogen)) at 1×10^6 cells/mL, and cultured with shaking in 2 L meyer at 27° C., 100 rpm.
After 24 hr of the culture, 10 mL of recombinant Baculovirus BAC-ACC1 was added, and the cells were cultured for 3 days. The culture medium was centrifuged at 1000×g for 5 min to give virus-infected cells. The cells were washed with phosphate buffered saline (Invitrogen) and centrifuged under the same conditions. The obtained cells were cryopreserved at −80° C.
The cryopreserved cells were thawed in ice and suspended in 100 mL of 25 mM HEPES buffer (pH 7.5) containing 10% Glycerol, 0.13 M NaCl, 1 mM EDTA, 25 mM Sodium […] and 1 mM Sodium Orthovanadate, and supplemented with Complete Protease Inhibitor (Nippon Boehringer Ingelheim Co., Ltd.). The obtained suspension was homogenized three times in a polytron homogenizer (Kinematica) at 20,000 rpm for 30 sec. The obtained cell disruption solution was clarified by centrifugation at 185700×g for 50 min, and filtered through a 0.45 μm filter. The filtrate was passed through a column packed with 12 ml of Ni-NTA Super Flow Gel (QUIAGEN) at a flow rate of about 5 mL/min. The column was washed with buffer A (50 mM HEPES (pH 7.5) containing 0.3 M NaCl), further washed with buffer A containing 20 mM Imidazole, and eluted with buffer A containing 100 mM Imidazole. The eluate was concentrated with Vivaspin 20 (Vivascience) with a molecular weight cut off of 30K. The obtained concentrate was dialyzed against Sephadex G-25 (Amersham Biosciences, 358 mL) equilibrated with 50 mM HEPES (pH 7.5) containing 10 mM MgCl2, 2 mM Dithiothreitol, 10 mM Tripotassium Citrate and 0.3 M NaCl. The inner dialysate was concentrated with Vivaspin 20 (Vivascience) with molecular weight cut off of 30K, and concentrate was filtered through a 0.22 μm filter to give ACC1. The obtained ACC1 was cryopreserved at −80° C.
(3) Measurement of ACC1 Inhibitory Activity
ACC1 (0.93 mg/ml) obtained in the above-mentioned (2) was diluted with an enzyme reaction buffer (50 mM HEPES (pH 7.5), 10 mM MgCl2, 10 mM Tripotassium Citrate, 2 mM Dithiothreitol, 0.75 mg/ml Fatty acid free BSA) to a concentration of 8 μg/ml, and the mixture was added to each well of a 384 well assay plate (Nunc 265196) by 10 μl. A test compound was dissolved in dimethyl sulfoxide (DMSO) and the mixture was diluted with an enzyme reaction buffer and the resulting solution (5 μl) was added to each well. The mixture was incubated at 30° C. for 60 min. Then, a substrate solution (50 mM KHCO3, 200 μM ATP, 200 μM Acetyl-CoA, 5 μl) was added to each well, and the mixture was reacted at 30° C. for 20 min (test compound addition group). […]

T1 sequence (O00763 117-2458 limits assumed): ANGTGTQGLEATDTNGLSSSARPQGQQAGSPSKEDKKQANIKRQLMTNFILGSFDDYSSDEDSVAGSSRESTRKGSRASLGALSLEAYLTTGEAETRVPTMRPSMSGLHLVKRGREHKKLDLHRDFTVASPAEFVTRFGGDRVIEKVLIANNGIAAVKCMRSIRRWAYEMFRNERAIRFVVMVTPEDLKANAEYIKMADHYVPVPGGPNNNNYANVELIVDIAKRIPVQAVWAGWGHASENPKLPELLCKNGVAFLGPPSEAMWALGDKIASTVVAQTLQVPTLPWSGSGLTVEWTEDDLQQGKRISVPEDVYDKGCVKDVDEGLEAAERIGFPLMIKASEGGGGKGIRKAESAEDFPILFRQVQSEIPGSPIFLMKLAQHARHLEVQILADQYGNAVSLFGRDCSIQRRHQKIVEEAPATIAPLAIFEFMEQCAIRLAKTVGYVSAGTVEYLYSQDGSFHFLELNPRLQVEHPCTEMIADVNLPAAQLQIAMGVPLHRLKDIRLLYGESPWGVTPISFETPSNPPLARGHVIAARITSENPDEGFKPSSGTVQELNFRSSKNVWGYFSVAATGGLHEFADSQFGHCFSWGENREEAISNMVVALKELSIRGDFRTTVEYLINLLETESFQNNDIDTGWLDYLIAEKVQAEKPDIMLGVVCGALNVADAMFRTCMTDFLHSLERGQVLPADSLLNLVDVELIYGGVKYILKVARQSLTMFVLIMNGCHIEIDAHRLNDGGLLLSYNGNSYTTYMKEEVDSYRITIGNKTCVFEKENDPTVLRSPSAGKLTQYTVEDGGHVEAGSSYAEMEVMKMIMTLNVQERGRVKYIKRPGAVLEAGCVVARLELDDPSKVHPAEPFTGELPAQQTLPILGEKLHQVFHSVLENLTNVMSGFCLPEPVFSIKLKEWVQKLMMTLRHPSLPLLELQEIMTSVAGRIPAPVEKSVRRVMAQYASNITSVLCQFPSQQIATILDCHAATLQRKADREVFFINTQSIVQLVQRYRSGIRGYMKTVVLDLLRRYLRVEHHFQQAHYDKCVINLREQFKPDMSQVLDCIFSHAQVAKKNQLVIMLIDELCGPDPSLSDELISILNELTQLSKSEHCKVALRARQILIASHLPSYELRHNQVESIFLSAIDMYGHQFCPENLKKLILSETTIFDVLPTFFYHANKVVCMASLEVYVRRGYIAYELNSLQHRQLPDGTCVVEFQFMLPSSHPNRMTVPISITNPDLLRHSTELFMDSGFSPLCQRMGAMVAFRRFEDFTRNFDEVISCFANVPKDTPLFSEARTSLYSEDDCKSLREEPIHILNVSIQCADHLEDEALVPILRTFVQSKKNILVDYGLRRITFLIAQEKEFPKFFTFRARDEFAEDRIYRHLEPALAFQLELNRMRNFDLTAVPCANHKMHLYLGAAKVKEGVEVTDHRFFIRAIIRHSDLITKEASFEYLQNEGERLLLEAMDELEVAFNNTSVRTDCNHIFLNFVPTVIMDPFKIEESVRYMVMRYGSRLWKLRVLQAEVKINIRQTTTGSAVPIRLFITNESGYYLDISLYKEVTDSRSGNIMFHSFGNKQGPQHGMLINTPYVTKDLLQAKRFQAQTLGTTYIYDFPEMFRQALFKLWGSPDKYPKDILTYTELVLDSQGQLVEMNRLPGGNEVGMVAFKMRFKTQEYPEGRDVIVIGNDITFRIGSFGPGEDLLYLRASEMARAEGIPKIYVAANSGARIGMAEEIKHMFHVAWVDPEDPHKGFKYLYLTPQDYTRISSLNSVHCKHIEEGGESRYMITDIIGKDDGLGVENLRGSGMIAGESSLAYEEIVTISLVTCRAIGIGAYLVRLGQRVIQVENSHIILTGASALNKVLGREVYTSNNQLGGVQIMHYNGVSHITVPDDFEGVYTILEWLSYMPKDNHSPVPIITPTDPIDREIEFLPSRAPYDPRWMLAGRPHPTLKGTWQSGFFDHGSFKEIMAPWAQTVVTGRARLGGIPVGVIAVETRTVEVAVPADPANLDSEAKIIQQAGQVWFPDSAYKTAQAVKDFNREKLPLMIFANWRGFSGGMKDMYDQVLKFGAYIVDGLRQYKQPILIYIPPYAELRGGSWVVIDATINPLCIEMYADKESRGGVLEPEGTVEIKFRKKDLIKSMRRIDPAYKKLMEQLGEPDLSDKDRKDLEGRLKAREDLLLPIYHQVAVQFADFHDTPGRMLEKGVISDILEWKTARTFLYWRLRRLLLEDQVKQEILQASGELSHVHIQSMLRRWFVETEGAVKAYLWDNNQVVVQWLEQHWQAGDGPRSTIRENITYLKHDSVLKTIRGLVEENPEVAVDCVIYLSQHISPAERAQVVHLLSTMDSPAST

With `CC(=O)N[C@@H](C)[C@@H]1Cc2ccc(CCc3ccc(OCC4CC4)cc3)cc2O1.CC(=O)N[C@H](C)[C@H]1Cc2ccc(CCc3ccc(OCC4CC4)cc3)cc2O1` (mixture of isomers) [Example 130 (retention time longer), N-{(1R)-1-[(2R)-6-{2-[4-(cyclopropylmethoxy)phenyl]ethyl}-2,3-dihydro-1-benzofuran-2-yl]ethyl}acetamide and N-{(1S)-1-[(2S)-6-{2-[4-(cyclopropylmethoxy)phenyl]ethyl}-2,3-dihydro-1-benzofuran-2-yl]ethyl}acetamide], at human ACC2 (Nd), the “ACC2 10 μM inhibitory rate (%)” value came to 62%. Besides, the “ACC1 10 μM inhibitory rate (%)” value on human ACC1 amounted to 25%.

For the compound `CC(=O)NC(C)c1cc2cc(OCc3ccc(OCC4CC4)nc3F)ccc2o1` (stereo not drawn) [Example 153, N-[1-(5-{[6-(cyclopropylmethoxy)-2-fluoropyridin-3-yl]methoxy}-1-benzofuran-2-yl)ethyl]acetamide], the inhibition at 10 µM on human ACC2 (Nd) stood at 70%; on human ACC1, 24%.

As to `CC(=O)NC(C)c1cc2cc(OCc3ccc(OCC4CC4)cc3F)ccc2o1` (stereo not drawn) [Example 110, N-[1-(5-{[4-(cyclopropylmethoxy)-2-fluorobenzyl]oxy}-1-benzofuran-2-yl)ethyl]acetamide], the inhibition at 10 µM is 78% on human ACC2 (Nd) and 40% on human ACC1.

`CC(=O)NC(C)c1coc2cc(OCc3ccc(OCC4CC4)nc3F)ccc12` (stereo not drawn) [Example 164, N-[1-(6-{[6-(cyclopropylmethoxy)-2-fluoropyridin-3-yl]methoxy}-1-benzofuran-3-yl)ethyl]acetamide]: the values for the inhibition at 10 µM on human ACC2 (Nd) and on human ACC1 were 93% and 50%, respectively.

For `CC(=O)N[C@H](C)[C@H]1Cc2ccc(C#Cc3ccc(OCC4CC4)cc3)cc2O1` (racemic) [Example 111, 1:1 mixture of N-{(1R)-1-[(2R)-6-{[4-(cyclopropylmethoxy)phenyl]ethynyl}-2,3-dihydro-1-benzofuran-2-yl]ethyl}acetamide and N-{(1S)-1-[(2S)-6-[([4-(cyclopropylmethoxy)phenyl]ethynyl]-2,3-dihydro-1-benzofuran-2-yl]ethyl}acetamide], the inhibition at 10 µM at human ACC2 (Nd) came out at 78%; on human ACC1, 30%.

For `CCOc1ccc(/C=C/c2ccc3cc(C(C)NC(C)=O)oc3c2)cc1` (stereo not drawn) [Example 125, N-(1-{6-[(E)-2-(4-ethoxyphenyl)ethenyl]-1-benzofuran-2-yl}ethyl)acetamide], the inhibition at 10 µM on human ACC2 (Nd) is 83%; on human ACC1, 33%.

For the compound `CC(=O)N[C@@H](C)[C@@H]1Cc2ccc(OCc3ccc(OCC4CC4)cc3)cc2O1` [Example 144, N-{(1S)-1-[(2S)-6-{[4-(cyclopropylmethoxy)benzyl]oxy}-2,3-dihydro-1-benzofuran-2-yl]ethyl}acetamide], the inhibition at 10 µM at human ACC2 (Nd) is 88%; on human ACC1 it was 48%.

For `CC(=O)NC(C)c1cc2cc(OCc3cnc(OCC4CC4)cc3F)ccc2o1` (stereo not drawn) [Example 154, N-[1-(5-{[6-(cyclopropylmethoxy)-4-fluoropyridin-3-yl]methoxy}-1-benzofuran-2-yl)ethyl]acetamide], the inhibition at 10 µM turned out to be 78% on human ACC2 (Nd) and 39% at human ACC1.

With `CC(=O)NC(C)c1cc2ccc(CCc3ccc(OCC4CC4)cc3)cc2o1` (stereo not drawn) [Example 150, N-[1-(6-{2-[4-(cyclopropylmethoxy)phenyl]ethyl}-1-benzofuran-2-yl)ethyl]acetamide], the inhibition at 10 µM on human ACC2 (Nd) was 81%; on human ACC1, 27%.

For `CCOc1ccc(COc2ccc3oc(C(C)NC(C)=O)nc3c2)cc1` (stereo not drawn) [Example 42, N-(1-{5-[(4-ethoxybenzyl)oxy]-1,3-benzoxazol-2-yl}ethyl)acetamide], the inhibition at 10 µM at human ACC2 (Nd) was found to be 76%; on human ACC1 it was 1%.

Regarding `CC(=O)NC(C)c1cc2ccc(CCc3ccc(OCCC4CC4)cc3)cc2o1` (stereo not drawn) [Example 174, N-[1-(6-{2-[4-(2-cyclopropylethoxy)phenyl]ethyl}-1-benzofuran-2-yl)ethyl]acetamide], the inhibition at 10 µM was 80% at human ACC2 (Nd) and 34% at human ACC1.

Regarding `CCCCOc1ccc(CCc2ccc3cc(C(C)NC(C)=O)oc3c2)cc1` (stereo not drawn) [Example 189 (retention time shorter)], the “ACC2 10 μM inhibitory rate (%)” value on human ACC2 (Nd) is recorded as 77%. Also, the “ACC1 10 μM inhibitory rate (%)” value on human ACC1 is 37%.
